Experimental data reported in PubChem BioAssay AID248 (DTP/NCI, 2004).
Toxic doses and inconclusive results are not listed. No stated cut-off is given here; in the data, active means T/C of 150% or more; inactive means T/C below 125%.

System: L1210 leukemia ip in BDF1 mice, survival T/C
Experiment: NCI In Vivo Anticancer Drug Screen. Data for tumor model L1210 Leukemia (intraperitoneal) in B6D2F1 (BDF1) mice
Details: endpoint: mean survival time, higher = longer survival
Outline: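 Transplantable tumor model; survival measured in treated vs vehicle control mice. Value = treated/control.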

Measured: T/C

CC(C)CCSc1nc(N)nc2nc[nH]c12
inactive: dose: 62.5 mg/kg/injection, schedule: Q01DX Z (ip), vehicle: carboxymethylcellulose (CMC) 122 % of control | dose: 125.0 mg/kg/injection, schedule: Q01DX Z (ip), vehicle: carboxymethylcellulose (CMC) 107 % of control | dose: 250.0 mg/kg/injection, schedule: Q01DX Z (ip), vehicle: carboxymethylcellulose (CMC) 100 % of control

CC(=O)Nc1ccc(S(=O)(=O)NO)cc1
inactive: dose: 50.0 mg/kg/injection, schedule: Q01DX009 (ip), vehicle: saline 96 % of control | dose: 100.0 mg/kg/injection, schedule: Q01DX009 (ip), vehicle: saline 100 % of control | dose: 100.0 mg/kg/injection, schedule: Q04DX003 (ip), vehicle: saline 100 % of control | dose: 200.0 mg/kg/injection, schedule: Q01DX009 (ip), vehicle: saline 94 % of control | dose: 200.0 mg/kg/injection, schedule: Q04DX003 (ip), vehicle: saline 103 % of control | dose: 400.0 mg/kg/injection, schedule: Q04DX003 (ip), vehicle: saline 101 % of control

C=CCNC(=O)C1C2C=CC(C2)C1C(=O)O (configuration not stated)
inactive: dose: 100.0 mg/kg/injection, schedule: Q04DX003 (ip), vehicle: saline with Tween-80 98 % of control | dose: 200.0 mg/kg/injection, schedule: Q04DX003 (ip), vehicle: saline with Tween-80 104 % of control | dose: 400.0 mg/kg/injection, schedule: Q04DX003 (ip), vehicle: saline with Tween-80 98 % of control
